{"source": "paper PMC5556071", "about": "“ATR inhibition facilitates targeting of leukemia dependence on convergent nucleotide biosynthetic pathways” (Nature Communications, 2017)", "tested_on": "CEM cells", "assay": "Non-targeted LC-MS metabolite profiling: percent [13C6]glucose labeling and relative metabolite levels", "format": "cell-based, human", "conditions": "CEM cells, 12 h following release from G1 arrest, replicates #1-#6", "excerpt": "To further investigate the functions of dCK and ATR at the G1/S transition in CEM cells, a non-targeted liquid chromatography mass spectrometry (LC-MS) assay was used to determine the utilization of labeled [^13C6]glucose and [^13C9,^15N3]deoxycytidine, the main substrates for de novo and salvage nucleotide biosynthesis, respectively. Of the 166 metabolites identified in CEM cells treated with VE-822 and/or dCKi, 105 metabolites found in all four treatment groups contained glucose-derived ^13C atoms. […] These metabolites included intermediates such as rUTP, rCTP and rCDP in the de novo dCTP biosynthesis (Fig. 1d). […] However, several deoxyribonucleotides, including dCTP, were below the limit of detection of the non-targeted LC-MS approach, raising the concern that the sensitivity of this assay is not sufficient to measure the contribution of the salvage pathway or the ratio of de novo and salvage biosynthesis to these pools. To address this problem, a newly developed targeted MS assay was developed (Fig. 1e and Supplementary Fig. 3). In this assay, samples containing either extracted dNTPs or hydrolyzed DNA from labeled cells are separated by LC for detection by a triple quadrupole mass spectrometer using multiple reaction monitoring (LC-MS/MS-MRM). The first (Q1) and third (Q3) quadrupoles function as mass filters, while the second (Q2) quadrupole serves as a collision chamber (Fig. 1e). For instance, to profile the biosynthetic composition of deoxycytidine (dC) derived from hydrolyzed DNA or dCTP, an intact, protonated dC ion is selected in Q1, followed by fragmentation of the glycosidic bond, which releases protonated cytosine in Q2, that is filtered in Q3 and detected to generate an ion chromatogram. The peak areas for the ion chromatograms of salvage [^13C9,^15N3]dC (red trace), de novo [^13C5]dC (black trace, from [^13C6]glucose) and unlabeled dC (gray trace) (Fig. 1e) are used to determine the relative contributions of the de novo and salvage routes both to dCTP pools and to DNA-incorporated dCTP.\nCells were transferred into RPMI-1640 without glucose and supplemented with 10% dialyzed FBS (Gibco) containing the following labeled substrates: precursors for de novo [U-^13C6]glucose (Sigma-Aldrich, 389374) at 11 mM; precursors for purine salvage [U-^13C10,^15N5]dA (Cambridge Isotopes, CIL 3896), [^15N5]dA (Cambridge Isotopes, NLM-3895) and [^15N5]dG (Cambridge Isotopes, NLM-3899) at 5 µM or as indicated; and precursors for pyrimidine salvage: [U-^13C9,^15N3]dC (Silantes, 124603602) and [U-^13C10,^15N2]dT (Cambridge Isotopes, CNLM-3902) at 5 µM and [^15N2]orotate (Cambridge Isotopes, NLM-1048) at indicated concentrations. The cells were incubated for 12 h or as indicated before sample collection and processing. […]\nNon-targeted LC-MS metabolic assays. 1 x 10^6 cells were washed with ice-cold 150 mM ammonium acetate twice before adding 1 mL of ice-cold 80% methanol with 10 nM norvaline as an internal standard. After vigorous vortexing, samples were centrifuged at maximum speed, the aqueous layer was transferred to a glass vial and the metabolites were dried under vacuum. Metabolites were resuspended in 50 μL 70% acetonitrile (ACN) and 5 μL of this solution used for the mass spectrometer-based analysis. The analysis was performed on a Q Exactive (Thermo Scientific) in polarity-switching mode with positive voltage 4.0 kV and negative voltage 4.0 kV. The mass spectrometer was coupled to an UltiMate 3000RSLC (Thermo Scientific) UHPLC system. Mobile phase A was 5 mM ammonium acetate (NH4AcO), pH 9.9, B was acetonitrile and the separation achieved on a Luna […] NH2 100 A column (150 × 2.0 mm, Phenomenex). The flow was 200 μL/min, and the gradient ran from 15% A to 95% A in 18 min, followed by an isocratic step for 9 min and re-equilibration for 7 min. Metabolites were detected and quantified as area under the curve based on retention time and accurate mass (≤ 3 p.p.m.) using the TraceFinder 3.1 (Thermo Scientific). Relative amounts of […]", "note": "Where “and” joins values, the source holds several entries; their conditions need not be identical. Identical values can stand only once.", "data": [{"compound": "CNCc1ccc(-c2cc(-c3nc(-c4ccc(S(=O)(=O)C(C)C)cc4)cnc3N)on2)cc1", "note": "[VE-822]", "values": [{"measurement": "Glucose labeling, Tyr (C00082)", "value": 0.00, "unit": "%"}, {"measurement": "Glucose labeling, Uric Acid (C00366)", "value": 0.00, "unit": "%"}, {"measurement": "Relative level, Orotate", "value": 0.7}, {"measurement": "Glucose labeling, Lac", "setting": "listed as V", "value": "18.07% and 12.73% and 18.58% and 10.84% and 13.61% and 9.63%"}, {"measurement": "Glucose labeling, Lys", "setting": "listed as V", "value": "0.00% (4×) and 1.11e-14% (2×)"}, {"measurement": "Glucose labeling, Mal", "setting": "listed as V", "value": "21.43% and 21.55% and 21.63% and 20.66% and 20.63% and 19.36%"}, {"measurement": "Glucose labeling, Met", "setting": "listed as V", "value": "0.00201% and 0.00233% and 0.002% and 0.0022% and 0.00164% and 0.00224%"}, {"measurement": "Glucose labeling, N-Carbamoyl-L-aspartate", "setting": "listed as V", "value": "0.12% (3×) and 1.58% and 100.00% (2×)"}, {"measurement": "Glucose labeling, NADP+", "setting": "listed as V", "value": "0.00% (5×) and 100.00%"}, {"measurement": "Glucose labeling, Nicotinamide", "setting": "listed as V", "value": "0.00% (4×) and -2.22e-14% and 1.11e-14%"}, {"measurement": "Glucose labeling, Ornithine", "setting": "listed as V", "value": "0.12% (3×) and 0.10% and 0.0528% and 0.00133%"}, {"measurement": "Glucose labeling, Orotate", "setting": "listed as V", "value": "100.00% (5×) and 0.0318%"}, {"measurement": "Glucose labeling, Orotidine", "setting": "listed as V", "value": "33.66% and 31.88% and 29.83% and 33.19% and 33.56% and 35.92%"}, {"measurement": "Glucose labeling, P-Choline", "setting": "listed as V", "value": "0.00204% (2×) and 0.00195% and 0.0016% and 0.00194% and 0.00159%"}, {"measurement": "Glucose labeling, P-Ser", "setting": "listed as V", "value": "17.40% and 18.30% and 18.56% and 14.37% and 10.74% and 15.47%"}, {"measurement": "Glucose labeling, Palmitate", "setting": "listed as V", "value": "0.0183% and 0.0339% and 0.00791% and 0.04% and 0.0649% and 0.00591%"}, {"measurement": "Glucose labeling, Pantothenate", "setting": "listed as V", "value": "0.00% (5×) and 1.11e-14%"}, {"measurement": "Glucose labeling, Pro", "setting": "listed as V", "value": "9.73% and 9.96% and 9.64% and 8.05% and 8.31% and 8.35%"}, {"measurement": "Glucose labeling, Pro-OH", "setting": "listed as V", "value": "0.00141% and 0.00104% and 0.000977% and 0.00201% and 0.00147% and 0.00157%"}, {"measurement": "Glucose labeling, R5P", "setting": "listed as V", "value": "100.00% (5×) and 87.46%"}, {"measurement": "Glucose labeling, S7P", "setting": "listed as V", "value": "82.53% and 82.63% and 83.80% and 82.99% and 87.27% and 79.29%"}, {"measurement": "Glucose labeling, SAM", "setting": "listed as V", "value": "61.24% and 62.78% and 63.01% and 60.62% and 59.88% and 60.86%"}, {"measurement": "Glucose labeling, Ser (C00065)", "setting": "listed as V", "value": "11.13% and 10.40% and 10.89% and 9.46% and 9.59% and 9.87%"}, {"measurement": "Glucose labeling, Shikimate (C00493)", "setting": "listed as V", "value": "0.00% (5×) and 1.11e-14%"}, {"measurement": "Glucose labeling, Succ (C00042)", "setting": "listed as V", "value": "0.93% and 0.0737% (3×) and 0.000466% and 0.000404%"}, {"measurement": "Glucose labeling, T (C00214)", "setting": "listed as V", "value": "0.47% and 0.23% and 0.34% and 0.00858% and 0.08% (2×)"}, {"measurement": "Glucose labeling, Thymine (C00178)", "setting": "listed as V", "value": "0.000884% and 0.000908% and 0.01% and 0.02% (2×) and 0.000701%"}, {"measurement": "Glucose labeling, Trp (C00078)", "setting": "listed as V", "value": "0.00% (4×) and -2.22e-14% and 1.11e-14%"}, {"measurement": "Glucose labeling, Tyramine (C00483)", "setting": "listed as V", "value": "0.00% (4×) and -2.22e-14% and 1.11e-14%"}, {"measurement": "Glucose labeling, UDP (C00015)", "setting": "listed as V", "value": "69.98% and 62.30% and 68.54% and 67.03% and 57.99% and 53.20%"}, {"measurement": "Glucose labeling, UDP-Glc (C00029)", "setting": "listed as V", "value": "98.27% and 97.52% and 97.62% and 96.48% and 95.86% and 94.41%"}, {"measurement": "Glucose labeling, UDP-GlcNAc (C00043)", "setting": "listed as V", "value": "91.42% and 92.87% (2×) and 89.85% and 89.76% and 89.80%"}, {"measurement": "Glucose labeling, UMP (C00105)", "setting": "listed as V", "value": "70.24% and 69.75% and 64.97% and 37.55% and 64.64% and 60.30%"}, {"measurement": "Glucose labeling, UTP (C00075)", "setting": "listed as V", "value": "73.32% and 70.31% and 75.59% and 75.28% and 69.74% and 72.15%"}, {"measurement": "Glucose labeling, Uracil (C00106)", "setting": "listed as V", "value": "0.06% and 0.05% and 0.00305% and 0.0378% and 0.0737% (2×)"}, {"measurement": "Glucose labeling, Urocanate (C00785)", "setting": "listed as V", "value": "0.00% (5×) and -2.22e-14%"}, {"measurement": "Glucose labeling, Val (C00183)", "setting": "listed as V", "value": "0.00% (5×) and -2.22e-14%"}, {"measurement": "Glucose labeling, Vit-C (C00072)", "setting": "listed as V", "value": "0.00% (5×) and -2.22e-14%"}, {"measurement": "Glucose labeling, Xanthine (C00385)", "setting": "listed as V", "value": "0.12% (2×) and 0.06% and 0.0856% and 0.09% (2×)"}, {"measurement": "Relative level, Lac", "setting": "listed as V", "value": "1.3 (2×) and 1.2 and 0.857 and 0.476 and 0.85"}, {"measurement": "Relative level, Leu/Ile", "setting": "listed as V", "value": "1.4 and 1.5 (2×) and 0.9 (2×) and 1.0"}, {"measurement": "Relative level, Lys", "setting": "listed as V", "value": "1.7 and 1.9 and 1.8 and 0.9 and 1.0 and 1.2"}, {"measurement": "Relative level, Mal", "setting": "listed as V", "value": "1.3 and 0.7 and 0.752 and 0.6 and 0.471 and 0.4"}, {"measurement": "Relative level, Met", "setting": "listed as V", "value": "1.5 (3×) and 0.9 (2×) and 1.0"}, {"measurement": "Relative level, N-Carbamoyl-L-aspartate", "setting": "listed as V", "value": "1.0 and 0.6 and 0.7 and 0.749"}, {"measurement": "Relative level, NAD+", "setting": "listed as V", "value": "1.0 and 0.9 (2×) and 0.647 and 0.7 and 0.752"}, {"measurement": "Relative level, NADP+", "setting": "listed as V", "value": "0.455 and 0.8 and 0.9 and 0.657 and 0.3"}, {"measurement": "Relative level, Nicotinamide", "setting": "listed as V", "value": "1.2 (2×) and 1.1 and 1.0 and 0.9 and 0.854"}, {"measurement": "Relative level, Ornithine", "setting": "listed as V", "value": "1.1 and 1.4 (2×) and 0.7 and 0.9 and 1.0"}, {"measurement": "Relative level, Orotidine", "setting": "listed as V", "value": "1.0 (3×) and 0.6 (2×) and 0.567"}, {"measurement": "Relative level, P-Choline", "setting": "listed as V", "value": "1.3 and 1.1 (2×) and 0.76 and 0.66 and 0.557"}, {"measurement": "Relative level, P-Creatine", "setting": "listed as V", "value": "1.7 and 0.9 (2×) and 0.7 and 1.5 and 1.2"}, {"measurement": "Relative level, P-EtA", "setting": "listed as V", "value": "1.1 and 0.7 and 0.6 and 1.7 and 0.744 and 0.5"}, {"measurement": "Relative level, P-Ser", "setting": "listed as V", "value": "1.0 (2×) and 1.1 and 0.37 and 0.234 and 0.273"}, {"measurement": "Relative level, PEP", "setting": "listed as V", "value": "0.435 and 0.082"}, {"measurement": "Relative level, Palmitate", "setting": "listed as V", "value": "0.9 (3×) and 1.1 and 1.2 and 1.0"}, {"measurement": "Relative level, Pantothenate", "setting": "listed as V", "value": "1.2 and 1.3 and 1.4 and 0.7 and 0.8 (2×)"}, {"measurement": "Relative level, Phe", "setting": "listed as V", "value": "1.4 and 1.5 (2×) and 0.9 (2×) and 1.0"}, {"measurement": "Relative level, Pipecolate", "setting": "listed as V", "value": "1.6 and 1.9 and 1.8 and 0.9 (2×) and 1.2"}, {"measurement": "Relative level, Pro", "setting": "listed as V", "value": "1.3 (2×) and 1.4 and 0.851 and 0.9 (2×)"}, {"measurement": "Relative level, Pro-OH", "setting": "listed as V", "value": "1.3 and 1.4 (2×) and 0.9 (3×)"}, {"measurement": "Relative level, Pyr", "setting": "listed as V", "value": "2.1 and 3.2 and 1.3 and 0.7 and 1.1 and 6.3"}, {"measurement": "Relative level, R5P", "setting": "listed as V", "value": "3.5 and 1.8 and 2.1 and 1.2 and 0.468 and 0.53"}, {"measurement": "Relative level, S7P", "setting": "listed as V", "value": "3.0 and 1.6 and 2.7 and 1.2 and 0.9 and 0.6"}, {"measurement": "Relative level, SAM", "setting": "listed as V", "value": "1.6 and 1.7 (2×) and 0.9 and 1.1 (2×)"}]}]}
